Source: paper PMC9468151, “Identification of a binding site on soluble RANKL that can be targeted to inhibit soluble RANK-RANKL interactions and treat osteoporosis” (Nature Communications, 2022)
“And” between values parts separate entries of the source, which are not always exact repeats. Identical values can stand only once. “Also recorded” adds a separate entry of the source.

Assays:
[1] = test system: sRANKL induced osteoclast differentiation; assay: In vitro anti-osteoclastogenesis activity determination (TRAP staining); format: cell-based, mouse; design: key to inhibition of osteoclastogenesis, dose-response (fig. S2a): % inhibition = 100 − (treated−unstimulated)/(untreated−unstimulated)×100; conditions: for IC50 / OC IC50 (anti-osteoclastogenesis activity): BMMs, M-CSF + 100 ng/mL sRANKL, 5 days, TRAP staining; for IC50: read-out: OC IC50 (anti-osteoclastogenesis activity); for inhibition of osteoclastogenesis, dose-response (fig. S2a): three replicate columns
Method: Mouse osteoclasts were cultured according to the previously reported protocols. BMMs were plated in 96-well plates at a density of 6 × 10^3 cells/well with complete medium containing 10 ng/mL M-CSF. The following day, cells were then stimulated with 100 ng/mL sRANKL in the presence or absence of compounds with different concentrations every 2 days until osteoclasts formed. In order to calculate IC50, we set 9 concentrations for each compound and untreated and non-sRANKL unstimulating group as controls, each with triplicated repeated wells. After 5 days, cells were fixed with 4% paraformaldehyde and then applied TRAP-staining to identify osteoclasts by using the TRAP-staining kit. Osteoclasts number (OC No.) in each well was counted and the percentage of inhibition ratio was calculated as follows:1 OCinhibitoryratio%=100−OCNo.treated−OCNo.unstimulating/OCNo.untreated−OCNo.unstimulating×100%
The dosages and their correspondent osteoclastogenesis inhibitory activity curve and IC50 value were conducted by using Nonlinear regression (curve fit) analytic procedure in GraphPad Prism 8. Photographs of individual wells were taken using Leica microscope.

RAW264.7 cells = assay: In vitro cytotoxicity assay (MTT); format: cell-based, mouse; conditions: RAW264.7, MTT
Method: MTT assay was used to determine cell viability. RAW264.7 cells in the logarithmic growth phase were cultured in 96-well plates with 6 × 10^3 cells in each well and incubated for 24 h. The surviving cells were then determined by MTT method. […] Cell growth inhibition ratio was calculated as follows: Cellgrowthinhibitionratio%=ODvehicle−ODtreaed/ODvehicle×100%
Cell cytotoxicity CC50 value were conducted by using Nonlinear regression (curve fit) analytic procedure in GraphPad Prism 8.

Row | Compound | IC50 [1] | inhibition of osteoclastogenesis, dose-response (fig. S2a) ([1]; conc. 0.0023464 μM) | inhibition of osteoclastogenesis, dose-response (fig. S2a) ([1]; conc. 0.00774313 μM) | inhibition of osteoclastogenesis, dose-response (fig. S2a) ([1]; conc. 0.0255523 μM) | inhibition of osteoclastogenesis, dose-response (fig. S2a) ([1]; conc. 0.0843226 μM) | inhibition of osteoclastogenesis, dose-response (fig. S2a) ([1]; conc. 0.278265 μM) | inhibition of osteoclastogenesis, dose-response (fig. S2a) ([1]; conc. 0.918274 μM) | inhibition of osteoclastogenesis, dose-response (fig. S2a) ([1]; conc. 3.0303 μM) | inhibition of osteoclastogenesis, dose-response (fig. S2a) ([1]; conc. 10 μM) | inhibition of osteoclastogenesis, dose-response (fig. S2a) ([1]; conc. 33 μM) | CC50 (RAW264.7 cells) | OC IC50 (anti-osteoclastogenesis activity) [1]
1 | CC(=O)C(=NNc1ccccc1C(=O)O)C(=O)Nc1ccc(C#N)cn1 [S3-15-1] | 1.05 µM | 2.8169 and -0.3521 and -2.465 | 2.113 and 9.859 and 10.5634 | 19.3662 and 16.1972 and 17.6056 | 28.169 and 26.7606 and 24.2958 | 28.169 (2×) and 24.2958 | 45.0704 and 44.7183 (2×) | 59.8591 and 57.7465 and 60.9155 | 77.4648 and 79.5775 and 76.0563 | 100 | 81.2 µM | –
2 | CC(C)OC(=O)C(=NNc1ccccc1C(=O)O)C(=O)Nc1ccccn1 [S3-15-4] | 0.62 µM | 19.4737 and 18.6842 and 17.1053 | 16.7105 and 16.3158 and 13.9474 | 17.8947 and 11.579 and 18.2895 | 16.7105 and 20.2632 and 17.8947 | 34.8684 and 32.5 and 38.8158 | 53.8158 and 43.9474 and 58.5526 | 73.9474 and 71.9737 and 70.3947 | 88.5526 and 83.421 and 86.579 | 100 | 57.2 µM | –
3 | CCOC(=O)c1sc(NC(=O)C(=NNc2ccc(F)cc2C(=O)O)C(C)=O)nc1C [S3-14] | 0.27 µM | 3.265 and -2.857 and -2.551 | 7.2449 and 0.2041 and -2.857 | 7.2449 and 2.041 and 14.2857 | 37.8571 and 28.9796 and 23.4694 | 54.3878 and 61.4286 and 45.8163 | 73.9796 and 67.2449 and 59.2857 | 88.9796 and 96.3265 and 87.7551 | 98.4694 and 95.7143 and 97.551 | 100 | 76.2 µM | –
4 | CC(=O)C(=NNc1ccccc1C(=O)O)C(=O)N1CCOCC1 [S3-18] | – | – | – | – | – | – | – | – | – | – | 52.6 µM | Inactive
5 | CCOC(=O)c1sc(NC(=O)C(=NNc2cc(C)ccc2C(=O)O)C(C)=O)nc1C [S3-10] | – | 3.829 and 3.173 and -0.4376 | 4.486 and 2.516 and 3.173 | 5.142 and 3.173 and 7.1116 | 9.409 and 8.096 and 12.3632 | 13.6761 and 23.1947 and 19.256 | 34.0263 and 27.4617 (2×) | 35.3392 and 33.3698 and 37.6368 | 87.1991 and 82.6039 and 90.1532 | 100 | 41.1 µM | –
6 | CCOC(=O)c1sc(NC(=O)C(=NNc2ccc(OC)cc2C(=O)O)C(C)=O)nc1C [S3-21] | 0.95 µM | 1.224 and -3.182 and 3.06 | 7.099 and 0.1224 and 2.326 | 7.099 and 3.427 and 5.998 | 11.5055 and 14.0759 and 15.9119 | 35.7405 and 36.4749 and 35.0061 | 54.8348 and 53.7332 and 55.5692 | 59.2411 and 62.1787 and 63.2803 | 74.6634 and 76.8666 and 77.9682 | 100 | > 100 µM | –
7 | CCOC(=O)c1sc(NC(=O)C(=NNc2c(C(=O)O)cccc2C(=O)O)C(C)=O)nc1C [S3-19] | 9.49 µM | 10.2719 and 4.834 (2×) | 5.287 and 4.834 and 5.74 | 0.7553 and 1.208 and 3.021 | 5.74 and 4.381 and -1.0574 | 18.8822 and 16.6163 and 15.2568 | 19.7885 and 17.0695 and 17.5227 | 26.1329 and 38.3686 and 35.1964 | 44.713 (2×) and 40.6344 | 74.1692 and 70.997 and 80.0604 | 77.9 µM | –
8 | CCOC(=O)c1sc(NC(=O)C(=NNc2ccccc2CO)C(C)=O)nc1C [S3-07] | 2.33 µM | – | – | – | – | – | – | – | – | – | 49.1 µM | inactive; also recorded: lose osetoclastogenesis inhibitory activities
9 | COC(=O)c1cccc(NC(=O)C(=NNc2ccccc2C(=O)O)C(C)=O)n1 [S3-15-2] | 1.26 µM | 11.9718 and 6.338 and 4.225 | 7.394 and 8.4507 and 9.155 | 9.507 and 6.338 and 9.155 | 31.6901 and 21.831 and 24.2958 | 33.0986 and 27.4648 and 28.169 | 47.1831 and 47.5352 and 44.3662 | 59.1549 (2×) and 58.0986 | 72.8873 and 71.1268 and 70.4225 | 88.3803 and 89.4366 and 88.7324 | > 100 µM | –
